{
  "source": "patent US8623832B2",
  "about": "“Peptide compositions that bind TLR-4” (The Board of Regents of the University of Oklahoma, priority 2011, dated 2014)",
  "key": {"JAWS II dendritic cells": {"system": "JAWS II dendritic cells", "experiment": "LPS-induced TNF-α release by JAWS II dendritic cells (ELISA)", "type": "cell-based, mouse", "settings": "for LPS-induced TNF-α secretion, pre-LPS model: peptide 1 or 10 μM 1 hour prior to LPS 75 ng/ml, total 5 hours; for LPS-induced TNF-α, mean values: post-LPS model", "description": "JAWS II dendritic cell culture: The JAWS II dendritic cell line is an immortalized cell line derived from bone marrow of C57BL/6 mice (ATCC, Manassas, Va.). The cells were maintained in Alpha-modified minimum essential medium (Sigma, St Louis, Mo.) supplemented with 20% fetal bovine serum (FBS), 4 mM L-glutamine, 100 U/ml penicillin, 100 μg/ml streptomycin, 50 μg/ml gentamicin (Invitrogen, Grand Island, N.Y.) and 5 ng/ml of recombinant murine granulocyte macrophage-colony stimulating factor (Peprotech, Rocky Hill, N.J.). (Awasthi et al., 2005). The culture medium was replaced with fresh medium every 48 h.\nThe JAWS II dendritic cells (1 million) were treated with SP-A peptides (1 or 10 μM) with or without E. coli derived LPS (75 ng/ml, highly purified, low protein, Calbiochem, CA). In order to observe the anti-inflammatory properties of the SP-A peptides, the cells were treated with peptides for 1 hour prior to addition of LPS (pre-LPS treatment) or after 4 hours incubation with LPS (Post-LPS treatment). The incubation was continued for a total period of 5 hours. Control cells were treated with vehicle, LPS (75 ng/ml), and/or SP-A peptides (1 and 10 μM) for a period of 5 hours. The cell-free supernatants were collected and stored at −80° C. for further analysis.\nCytokine (TNF-α) measurement: The TNF-α levels were measured in cell-free supernatants of JAWS II dendritic cells treated with LPS with or without SP-A peptides by enzyme linked immunosorbent assay (ELISA) as described earlier (Awasthi and Cox, 2003)."}, "[1]": {"system": "primary adult baboon lung DCs and fetal baboon lung DC-precursor cells", "experiment": "Phagocytosis of pHrodo-labeled E. coli bioparticles by primary baboon lung DCs / fetal DC-precursor cells", "type": "cell-based", "settings": "SP-A 2 μM, TLR4-MD2 0.3 μM", "description": "Freshly collected lobe of the lung or whole lung samples of adult and fetal baboons were transported on ice in RPMI 1640 medium containing 2 mM glutamine, 1 mM HEPES, 10 μg/ml gentamicin, 100 U/ml penicillin, 100 μg/ml streptomycin and 10% FBS. After a mild mechanical disruption, the single cell suspension was seeded in a tissue culture flask (Nalge-Nunc International Corp, NY) at a density of 30-50×10^6 leukocytes/175 cm^2 flask in RPMI 1640 medium containing 2 mM glutamine, 1 mM HEPES, 10 μg/ml gentamicin, 100 U/ml penicillin, 100 μg/ml streptomycin and 10% FBS. The light-density DC-populations were harvested using OptiPrep cell-separation solution (density 1.32 g/ml, Accurate Chemicals, NY) (Awasthi and Cooper, 2006; Awasthi et al., 2009). The immunophenotype and basic characteristics of the lung DC-population isolated from fetal and adult baboons have been described earlier (Awasthi et al., 2009). Here, first the immunophenotype of KG-1-derived DCs and fetal baboon lung DC-precursors or adult baboon lung DCs were compared by flow cytometry. Briefly, cells were suspended in Dulbecco's phosphate buffered saline (DPBS) containing 1% FBS and 0.09% sodium azide and incubated with fluorochrome-conjugated antibodies to HLA-DP, DQ, DR, CD11c, CD40, CD80, CD86 (typical DC-markers) as described earlier.\n(§1) After confirming that the fluorescence is of phagocytosed bioparticles, comprehensive experiments were performed in presence and absence of effector molecules (SP-A and TLR4-MD2 proteins). […] The fluorescence readings were taken at 550 nm excitation and 600 nm emission wavelengths using SpectraMax M2 spectrofluorometer (Molecular Devices, CA).\n(§2) The phagocytosis index was calculated by subtracting the average fluorescence intensity of the reaction with bioparticles alone from the control (basal without any effector molecules) and experimental wells. Finally, the percent effect was calculated using the following formula: % effect=(Net experimental phagocytosis/Net basal phagocytosis)×100%"}, "[2]": {"system": "primary adult baboon lung DCs and fetal baboon lung DC-precursor cells", "experiment": "TNF-α secretion against E. coli by baboon lung DCs (ELISA)", "type": "cell-based", "settings": "3 hours phagocytosis reaction; protein added alone", "description": "After confirming that the fluorescence is of phagocytosed bioparticles, comprehensive experiments were performed in presence and absence of effector molecules (SP-A and TLR4-MD2 proteins). The cells were pulsed with purified, native baboon lung SP-A and recombinant human TLR4-MD2 or MD2 proteins (RnD Systems, MN) for an hour prior to phagocytosis assay with pHrodo-conjugated, heat-killed E. coli K12 bioparticles (Invitrogen-Molecular Probes, CA). MD2 protein was also included, because SP-A is known to interact with MD2, and it was questioned if MD2 can influence the immune functions of DC-population. The assay was performed in serum-free Opti-MEM medium (Invitrogen, CA), as described by the manufacturer (Invitrogen-Molecular Probes, CA). The assay mixtures were incubated for another 3 hours at 37° C. in 5% CO2 incubator. The fluorescence readings were taken at 550 nm excitation and 600 nm emission wavelengths using SpectraMax M2 spectrofluorometer (Molecular Devices, CA).\nCytokine (TNF-α) measurement: The TNF-α levels were measured in cell-free supernatants by enzyme linked immunosorbent assay (ELISA) using a commercially available kit (eBioscience, CA), as per the manufacturer's instructions. Briefly, the microwells of a 96 well plate were coated with diluted purified anti-human TNF-α antibody. The wells were washed, and nonspecific sites were blocked. Diluted recombinant human TNF-α (7.8-500 pg/ml standard) and cell-free-supernatant (1:10) were added to the antibody-coated wells, and the plate was incubated overnight at 4° C. The next day, the plate was washed and incubated with biotin-conjugated anti-human TNF-α antibody followed by avidin-horseradish peroxidase and substrate solution. The reaction was stopped by adding 2 N H2SO4 and read at 450 nm (Molecular Devices, CA)."}, "KG-1-derived DCs": {"system": "KG-1-derived DCs", "experiment": "Phagocytosis of pHrodo-labeled E. coli bioparticles by KG-1-derived DCs", "type": "cell-based, human", "settings": "MD2 alone 0.02-0.2 μM", "description": "Phagocytosis assay: In this Example, pHrodo-conjugated, heat-killed E. coli K12 (encapsulated) bioparticles (Invitrogen-Molecular Probes, CA) were employed. The pHrodo-fluorescent label offers an advantage over other conventional methods, in that it fluoresces only in acidic conditions (i.e., after the bioparticles are taken inside the intracellular lysosomes) (Invitrogen-Molecular Probes, CA). To ensure that the fluorescence relates to phagocytosed pHrodo-conjugated E. coli bioparticles only, the phagocytosis reaction mix was imaged by confocal microscopy. […]\nas §1, §2"}},
  "data": [
    {"molecule": "SPA2: 20-mer synthetic peptide derived from the C-terminal Carbohydrate Recognition Domain of human SP-A (PAGRGKEQCVEMYTDGQWND; listed as Homo sapiens)", "values": [
      {"measurement": "LPS-induced TNF-α secretion, pre-LPS model", "setting": "JAWS II dendritic cells", "result": "slight increase"}
    ]},
    {"molecule": "SPA3: 20-mer synthetic peptide derived from the C-terminal Carbohydrate Recognition Domain of human SP-A (VNYTNWYRGEPAGRGKEQCV; listed as Homo sapiens)", "values": [
      {"measurement": "LPS-induced TNF-α secretion, pre-LPS model", "setting": "JAWS II dendritic cells", "result": "slight increase"}
    ]},
    {"molecule": "SPA5: 20-mer synthetic peptide from C-terminal CRD of human SP-A; contains the first 10 amino acids of the SPA4 peptide (YVGLTEGPSPGDFRYSDGTP; listed as Homo sapiens)", "values": [
      {"measurement": "secretion of TNF-α, post-LPS model", "setting": "JAWS II dendritic cells; peptide added after 4 hours LPS 75 ng/ml, both 1 and 10 μM", "result": "inhibited the secretion of TNF-α"},
      {"measurement": "LPS-induced TNF-α, mean values", "setting": "JAWS II dendritic cells; 1 μM peptide", "result": 8284, "unit": "pg/mL"},
      {"measurement": "LPS-induced TNF-α, mean values", "setting": "JAWS II dendritic cells; 10 μM peptide", "result": 6319, "unit": "pg/mL"}
    ]},
    {"molecule": "SPA7: 20-mer synthetic peptide derived from the C-terminal Carbohydrate Recognition Domain of human SP-A (SLQGSIMTVGEKVFSSNGQS; listed as Homo sapiens)", "values": [
      {"measurement": "LPS-induced TNF-α secretion, pre-LPS model", "setting": "JAWS II dendritic cells", "result": "slight increase"}
    ]},
    {"molecule": "TLR4-MD2: soluble mixture of recombinant human TLR4 extracellular domain and MD2 proteins (R&D Systems) [reference compound]", "values": [
      {"measurement": "phagocytic uptake of E. coli", "setting": "[1]", "result": "increased"},
      {"measurement": "secretion of TNF-α by DCs in response to E. coli", "setting": "[2]", "result": "increased the TNF-α secretion significantly"}
    ]},
    {"molecule": "MD2: recombinant human MD-2 protein, adaptor molecule for TLR4 (R&D Systems) (protein, listed as Homo sapiens) MLPFLFFSTLFSSIFTEAQKQYWVCNSSDASISYTYCDKMQYPISINVNPCIELKGSKGLLHIFYIPRRDLKQLYFNLYITVNTMNLPKRKEVICRGSDDDYSFCRALKGETVNTTISFSFKGIKFSKGKYKCVVEAISGSPEEMLFCLEFVILHQPNSN", "values": [
      {"measurement": "effect on phagocytosis of E. coli bioparticles", "setting": "KG-1-derived DCs", "result": "did not affect the phagocytosis"}
    ]}
  ]
}
